What all share (format): biochemical
The target in one assay is T1, Zap-70 (Homo sapiens, UniProt P43403).
T1 construct: Kinases are expressed as either kinase domains or full length constructs; made in house
T1 sequence (P43403 1-619): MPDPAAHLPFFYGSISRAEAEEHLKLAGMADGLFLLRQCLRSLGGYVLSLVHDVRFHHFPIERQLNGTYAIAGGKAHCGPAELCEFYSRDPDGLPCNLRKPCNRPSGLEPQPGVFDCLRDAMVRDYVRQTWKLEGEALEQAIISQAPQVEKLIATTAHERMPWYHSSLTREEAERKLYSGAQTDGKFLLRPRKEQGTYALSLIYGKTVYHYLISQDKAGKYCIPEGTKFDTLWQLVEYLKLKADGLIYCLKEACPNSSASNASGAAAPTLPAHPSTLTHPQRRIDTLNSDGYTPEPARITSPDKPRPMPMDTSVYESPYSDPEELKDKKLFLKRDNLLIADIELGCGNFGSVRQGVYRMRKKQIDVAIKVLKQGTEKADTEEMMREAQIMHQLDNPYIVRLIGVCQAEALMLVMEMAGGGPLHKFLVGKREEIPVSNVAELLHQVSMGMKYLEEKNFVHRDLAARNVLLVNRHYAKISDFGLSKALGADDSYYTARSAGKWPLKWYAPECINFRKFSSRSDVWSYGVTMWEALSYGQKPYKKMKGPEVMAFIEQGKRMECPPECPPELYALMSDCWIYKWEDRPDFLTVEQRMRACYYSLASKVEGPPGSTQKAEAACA
The assay is described as follows: Kinase inhibition assay (33P transfer), Zap-70. As to conditions: Table 3; read-out: Zap-1. In outline:
(§1)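 Filterless plate radiometric format: immobilized poly(Glu,Tyr) 4:1 or poly(Arg,Ser) 3:1, 33P-labelled ATP, tagged recombinant kinase (some with regulatory partners). Incorporated label counted after phosphoric acid wash.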

In the next assay the target is T2, EPHB4 (Homo sapiens, UniProt P54760).
T2 construct: Kinases are expressed as either kinase domains or full length constructs; made in house
T2 sequence (P54760 16-987): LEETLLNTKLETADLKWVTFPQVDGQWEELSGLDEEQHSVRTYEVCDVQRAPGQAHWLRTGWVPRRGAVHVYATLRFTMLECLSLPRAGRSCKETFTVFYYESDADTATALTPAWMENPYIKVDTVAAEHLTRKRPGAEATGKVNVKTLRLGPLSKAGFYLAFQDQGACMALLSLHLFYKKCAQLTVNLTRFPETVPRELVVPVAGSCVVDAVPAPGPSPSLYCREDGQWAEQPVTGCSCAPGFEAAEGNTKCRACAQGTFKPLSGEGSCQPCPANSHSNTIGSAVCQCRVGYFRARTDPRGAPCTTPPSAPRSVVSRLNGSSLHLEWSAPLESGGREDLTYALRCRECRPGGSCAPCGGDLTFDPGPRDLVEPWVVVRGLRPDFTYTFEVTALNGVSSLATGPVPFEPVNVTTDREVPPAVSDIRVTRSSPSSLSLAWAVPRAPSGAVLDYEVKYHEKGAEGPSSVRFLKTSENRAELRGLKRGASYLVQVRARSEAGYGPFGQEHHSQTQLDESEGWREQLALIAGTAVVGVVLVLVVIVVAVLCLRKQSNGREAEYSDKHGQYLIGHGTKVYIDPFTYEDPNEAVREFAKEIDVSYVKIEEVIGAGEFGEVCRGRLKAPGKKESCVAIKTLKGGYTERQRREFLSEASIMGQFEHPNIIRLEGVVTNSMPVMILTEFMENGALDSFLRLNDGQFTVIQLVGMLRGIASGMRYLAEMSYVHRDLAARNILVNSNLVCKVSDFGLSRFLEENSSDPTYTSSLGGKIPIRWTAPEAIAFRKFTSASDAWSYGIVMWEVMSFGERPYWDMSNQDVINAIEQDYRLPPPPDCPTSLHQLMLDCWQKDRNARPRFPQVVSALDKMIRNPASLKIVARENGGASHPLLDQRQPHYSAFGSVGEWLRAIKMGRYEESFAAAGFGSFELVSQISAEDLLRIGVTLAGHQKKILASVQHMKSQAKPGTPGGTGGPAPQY
Briefly: Kinase inhibition assay (33P transfer), EPHB4. The following applies: read-out: EPHB4-1.

A further assay addresses T3, Src (Homo sapiens, UniProt P12931).
T3 construct: Kinases are expressed as either kinase domains or full length constructs; made in house
The assay is described as follows: Kinase inhibition assay (33P transfer), Src. The following applies: Table 6, Src-1 kinase inhibition class. Summed up:
(§2)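 Read-out: scintillation counts of 33P moved from ATP onto synthetic peptide polymer coated on the well surface, after washing with 0.5% phosphoric acid. Enzymes were tagged (GST or polyHistidine) and came from bacterial or insect-cell expression. IC50 marks 50% loss of incorporated label.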

A further assay deals with T4, Kdr (Homo sapiens, UniProt P35968).
T4 construct: Kinases are expressed as either kinase domains or full length constructs; made in house
Briefly: Kinase inhibition assay (33P transfer), Kdr. The following applies: Table 3; read-out: KDR-1. Summed up:
as §1

The target of another assay is T5, Ret-1 (Homo sapiens, UniProt P07949).
T5 construct: Kinases are expressed as either kinase domains or full length constructs; made in house
Briefly: Kinase inhibition assay (33P transfer), Ret. The following applies: Table 6, Ret-1 kinase inhibition class.

A further assay addresses T6, Lyn (Homo sapiens, UniProt P07948).
T6 construct: Kinases are expressed as either kinase domains or full length constructs; made in house
Briefly: Kinase inhibition assay (33P transfer), Lyn. The following applies: Table 6, Lyn-1 kinase inhibition class. In outline:
as §2

The target of another assay is T7, AKT (Homo sapiens, UniProt Q9Y243).
T7 construct: Kinases are expressed as either kinase domains or full length constructs; made in house
The assay is described as follows: Kinase inhibition assay (33P transfer), AKT. As to conditions: Table 2, kinase inhibition class; read-out: AKT3-1. In outline: as §1

Another assay addresses T8, ErbB2 (Homo sapiens, UniProt P04626).
T8 construct: Kinases are expressed as either kinase domains or full length constructs; made in house
The assay is described as follows: Kinase inhibition assay (33P transfer), ErbB2. As to conditions: read-out: ErbB2-2. In outline: as §2

Experimental findings from patent US7074789B2, “Kinase inhibitors” (Amgen Inc., priority 1999, dated 2006) are described below.

T8 sequence (P04626 23-1255, species assumed): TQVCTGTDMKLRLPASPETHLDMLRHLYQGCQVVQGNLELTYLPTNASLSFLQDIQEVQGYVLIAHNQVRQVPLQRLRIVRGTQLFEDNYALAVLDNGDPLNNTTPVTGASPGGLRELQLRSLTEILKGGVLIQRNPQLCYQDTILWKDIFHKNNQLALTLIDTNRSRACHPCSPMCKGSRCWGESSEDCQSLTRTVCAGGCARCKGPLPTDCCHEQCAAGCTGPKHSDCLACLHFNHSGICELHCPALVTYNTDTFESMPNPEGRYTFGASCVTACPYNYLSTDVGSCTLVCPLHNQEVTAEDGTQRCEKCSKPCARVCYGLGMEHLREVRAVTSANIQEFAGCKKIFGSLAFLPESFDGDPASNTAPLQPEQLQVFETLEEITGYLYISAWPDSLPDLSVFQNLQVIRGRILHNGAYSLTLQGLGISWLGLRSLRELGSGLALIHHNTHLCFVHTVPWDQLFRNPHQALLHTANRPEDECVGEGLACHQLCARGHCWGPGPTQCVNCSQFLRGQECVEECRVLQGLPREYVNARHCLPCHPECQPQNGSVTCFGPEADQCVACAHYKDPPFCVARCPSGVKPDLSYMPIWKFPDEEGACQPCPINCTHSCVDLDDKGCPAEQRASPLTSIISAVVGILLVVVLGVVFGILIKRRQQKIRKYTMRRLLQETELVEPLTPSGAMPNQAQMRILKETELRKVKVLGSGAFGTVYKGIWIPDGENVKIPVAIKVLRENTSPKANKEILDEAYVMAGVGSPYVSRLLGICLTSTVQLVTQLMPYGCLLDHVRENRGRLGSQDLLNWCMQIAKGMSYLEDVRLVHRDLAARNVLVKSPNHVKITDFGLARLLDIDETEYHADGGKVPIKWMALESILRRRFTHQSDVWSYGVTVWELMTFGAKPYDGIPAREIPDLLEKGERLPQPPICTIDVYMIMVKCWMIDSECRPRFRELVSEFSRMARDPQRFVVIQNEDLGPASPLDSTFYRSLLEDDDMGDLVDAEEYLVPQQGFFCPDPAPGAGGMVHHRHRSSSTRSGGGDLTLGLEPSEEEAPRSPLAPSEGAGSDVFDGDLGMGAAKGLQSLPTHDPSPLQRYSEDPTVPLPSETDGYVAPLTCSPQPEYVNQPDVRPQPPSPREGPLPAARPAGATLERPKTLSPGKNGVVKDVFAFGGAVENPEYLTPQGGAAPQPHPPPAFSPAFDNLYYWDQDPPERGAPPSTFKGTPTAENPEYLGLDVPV
T4 sequence (P35968 20-1356, species assumed): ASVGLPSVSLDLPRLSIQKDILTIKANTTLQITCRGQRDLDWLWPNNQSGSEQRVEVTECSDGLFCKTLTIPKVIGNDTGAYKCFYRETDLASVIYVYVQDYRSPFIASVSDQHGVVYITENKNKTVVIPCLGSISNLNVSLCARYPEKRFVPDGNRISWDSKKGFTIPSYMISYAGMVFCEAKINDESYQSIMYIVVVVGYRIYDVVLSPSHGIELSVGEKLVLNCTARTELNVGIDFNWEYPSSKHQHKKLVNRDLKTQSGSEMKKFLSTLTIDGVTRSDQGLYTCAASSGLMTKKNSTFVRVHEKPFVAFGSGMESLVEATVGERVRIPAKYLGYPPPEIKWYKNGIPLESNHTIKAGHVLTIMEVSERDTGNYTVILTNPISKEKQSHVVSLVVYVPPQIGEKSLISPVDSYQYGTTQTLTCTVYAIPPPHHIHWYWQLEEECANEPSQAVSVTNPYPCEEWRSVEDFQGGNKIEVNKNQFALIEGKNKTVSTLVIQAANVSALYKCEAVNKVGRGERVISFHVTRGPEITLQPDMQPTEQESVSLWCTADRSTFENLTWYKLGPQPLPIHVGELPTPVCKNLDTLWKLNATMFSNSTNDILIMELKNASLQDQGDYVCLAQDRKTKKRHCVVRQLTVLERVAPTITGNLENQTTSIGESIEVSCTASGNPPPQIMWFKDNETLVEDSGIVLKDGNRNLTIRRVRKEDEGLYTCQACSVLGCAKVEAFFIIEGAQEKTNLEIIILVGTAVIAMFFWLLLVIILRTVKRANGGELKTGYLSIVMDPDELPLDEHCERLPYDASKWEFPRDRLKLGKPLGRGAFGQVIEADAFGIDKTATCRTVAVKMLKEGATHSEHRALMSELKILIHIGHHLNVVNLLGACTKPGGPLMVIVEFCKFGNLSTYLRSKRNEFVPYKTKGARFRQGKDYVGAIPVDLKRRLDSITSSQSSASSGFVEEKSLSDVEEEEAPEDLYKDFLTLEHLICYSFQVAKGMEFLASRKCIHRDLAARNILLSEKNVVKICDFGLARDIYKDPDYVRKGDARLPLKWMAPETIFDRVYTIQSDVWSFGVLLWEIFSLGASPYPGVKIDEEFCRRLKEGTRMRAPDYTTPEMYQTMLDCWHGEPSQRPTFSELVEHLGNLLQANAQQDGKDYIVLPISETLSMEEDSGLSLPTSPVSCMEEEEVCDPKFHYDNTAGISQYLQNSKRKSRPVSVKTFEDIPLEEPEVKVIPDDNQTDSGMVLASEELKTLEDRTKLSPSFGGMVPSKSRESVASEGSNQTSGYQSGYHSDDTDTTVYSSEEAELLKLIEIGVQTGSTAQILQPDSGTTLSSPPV
T3 sequence (P12931 whole entry, species assumed, the tested form may be a part): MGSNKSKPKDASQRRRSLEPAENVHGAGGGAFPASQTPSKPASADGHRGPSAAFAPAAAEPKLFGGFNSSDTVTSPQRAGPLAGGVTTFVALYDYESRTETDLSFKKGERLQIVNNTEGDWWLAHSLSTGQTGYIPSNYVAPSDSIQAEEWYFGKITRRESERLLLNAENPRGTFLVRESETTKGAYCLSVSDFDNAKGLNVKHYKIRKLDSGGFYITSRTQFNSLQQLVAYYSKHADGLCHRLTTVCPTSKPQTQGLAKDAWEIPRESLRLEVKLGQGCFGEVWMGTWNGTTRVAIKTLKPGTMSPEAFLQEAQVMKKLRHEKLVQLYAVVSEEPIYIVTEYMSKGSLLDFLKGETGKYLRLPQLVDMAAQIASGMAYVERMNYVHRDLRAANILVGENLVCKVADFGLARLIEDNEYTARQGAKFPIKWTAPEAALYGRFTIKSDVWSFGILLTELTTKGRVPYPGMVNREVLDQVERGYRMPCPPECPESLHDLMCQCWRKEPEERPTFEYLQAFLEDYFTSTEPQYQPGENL
T6 sequence (P07948 whole entry, species assumed, the tested form may be a part): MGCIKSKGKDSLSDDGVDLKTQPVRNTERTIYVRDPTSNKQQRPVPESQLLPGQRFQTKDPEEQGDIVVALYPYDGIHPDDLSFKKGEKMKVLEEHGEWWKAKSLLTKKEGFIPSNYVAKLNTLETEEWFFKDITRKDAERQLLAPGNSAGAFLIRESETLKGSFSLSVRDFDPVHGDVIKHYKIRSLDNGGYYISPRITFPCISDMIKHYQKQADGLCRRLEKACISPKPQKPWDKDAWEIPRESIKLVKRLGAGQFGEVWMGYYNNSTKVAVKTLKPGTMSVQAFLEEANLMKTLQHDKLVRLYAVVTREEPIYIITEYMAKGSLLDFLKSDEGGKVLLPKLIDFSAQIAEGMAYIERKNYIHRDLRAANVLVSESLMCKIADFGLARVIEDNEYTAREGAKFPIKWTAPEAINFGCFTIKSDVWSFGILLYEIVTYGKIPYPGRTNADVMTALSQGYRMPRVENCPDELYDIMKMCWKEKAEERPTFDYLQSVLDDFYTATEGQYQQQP
T5 sequence (P07949 29-1114): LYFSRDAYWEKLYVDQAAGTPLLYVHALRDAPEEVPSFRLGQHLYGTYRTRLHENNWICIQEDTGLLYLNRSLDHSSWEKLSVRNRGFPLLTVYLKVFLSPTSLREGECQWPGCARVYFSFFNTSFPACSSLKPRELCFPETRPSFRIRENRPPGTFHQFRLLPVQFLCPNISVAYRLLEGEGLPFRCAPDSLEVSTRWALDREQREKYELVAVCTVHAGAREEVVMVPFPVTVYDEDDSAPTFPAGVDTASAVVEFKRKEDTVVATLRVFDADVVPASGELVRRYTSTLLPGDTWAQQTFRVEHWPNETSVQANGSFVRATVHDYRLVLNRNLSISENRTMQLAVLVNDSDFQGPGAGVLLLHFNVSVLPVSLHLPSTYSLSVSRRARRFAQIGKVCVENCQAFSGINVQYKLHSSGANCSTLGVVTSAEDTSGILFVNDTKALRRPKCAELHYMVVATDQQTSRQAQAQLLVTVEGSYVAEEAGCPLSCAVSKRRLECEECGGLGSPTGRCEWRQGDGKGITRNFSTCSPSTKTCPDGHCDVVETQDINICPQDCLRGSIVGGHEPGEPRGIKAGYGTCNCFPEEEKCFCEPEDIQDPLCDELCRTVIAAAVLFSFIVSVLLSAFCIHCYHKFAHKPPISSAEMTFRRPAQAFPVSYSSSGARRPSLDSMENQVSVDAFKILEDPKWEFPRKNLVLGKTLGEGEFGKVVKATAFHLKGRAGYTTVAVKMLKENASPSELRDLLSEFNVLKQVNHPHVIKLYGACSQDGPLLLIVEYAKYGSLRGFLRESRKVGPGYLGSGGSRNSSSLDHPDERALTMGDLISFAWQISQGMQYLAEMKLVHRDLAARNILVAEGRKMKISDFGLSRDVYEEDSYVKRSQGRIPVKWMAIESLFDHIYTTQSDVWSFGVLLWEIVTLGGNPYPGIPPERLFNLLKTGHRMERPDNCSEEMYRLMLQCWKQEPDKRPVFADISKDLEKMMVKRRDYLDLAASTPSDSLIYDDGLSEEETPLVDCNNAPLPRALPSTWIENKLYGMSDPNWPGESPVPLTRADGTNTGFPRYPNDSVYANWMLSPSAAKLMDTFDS

In the case of `COc1cc(Nc2ncnc(Nc3ccc(N)cc3)n2)cc(OC)c1OC` [Compound 92], the IC50 at Zap-70 was 9.5 to 12.2 µM; on EPHB4, 6.51 to 9.5 µM; at Src, 9.5 to 12.2 µM; on Kdr, 1.09 to 6.51 µM; on Ret-1, more than 12.2 µM; at Lyn it was 1.09 to 6.51 µM. The IC50 at AKT was 9.5 to 12.2 µM.
Turning to `COc1cc(Nc2ncnc(Nc3ccc(Cl)cc3)n2)cc(OC)c1OC` [Compound 72], the IC50 was more than 11.6 µM at Zap-70; 1.03 to 6.19 µM at EPHB4; less than 1.03 µM on Kdr; less than 1.03 µM against Ret-1; 1.03 to 6.19 µM on ErbB2; more than 11.6 µM on AKT.
With `COc1cc(Nc2ncnc(Nc3ccc(Oc4ccccc4)cc3)n2)cc(OC)c1OC` [Compound 29], the IC50 at Zap-70 is more than 10.1 µM; on EPHB4, more than 10.1 µM; at Src it was less than 0.898 µM; on Kdr it was less than 0.898 µM; on Ret-1, less than 0.898 µM; against Lyn, less than 0.898 µM. For the same molecule, on AKT, the IC50 was more than 10.1 µM.
Take `COc1cc(Nc2ncnc(Nc3ccc(F)c(Cl)c3)n2)cc(OC)c1OC` [Compound 61]: the IC50 on Zap-70 is more than 11.1 µM; at EPHB4, less than 0.986 µM; against Src, less than 0.986 µM; on Kdr, less than 0.986 µM; against Ret-1 it was more than 11.1 µM; at Lyn, less than 0.986 µM. Besides, on AKT, the IC50 is more than 11.1 µM.
Turning to `NC(=O)c1ccc(Nc2ncnc(Nc3cc(-c4ccco4)n[nH]3)n2)cc1` [Compound 341], the IC50 was more than 12.4 µM on Zap-70; 1.1 to 6.62 µM on EPHB4; more than 12.4 µM at Src; less than 1.1 µM at Kdr; less than 1.1 µM at Ret-1; more than 12.4 µM against Lyn. Further, the IC50 at AKT was more than 12.4 µM.
On to `COc1cc(Nc2ncnc(Nc3ccc(C(C)C)cc3)n2)cc(OC)c1OC` [Compound 66], for which the IC50 is 6.07 to 8.85 µM on Zap-70; 8.85 to 11.4 µM at EPHB4; less than 1.01 µM against Src; 1.01 to 6.07 µM on Kdr; more than 11.4 µM at Ret-1; 1.01 to 6.07 µM on Lyn. In addition, the IC50 at AKT is more than 11.4 µM.
On to `COc1cc(Nc2ncnc(-n3cc(CC(N)=O)c4ccccc43)n2)cc(OC)c1OC` [Compound 353], for which the IC50 on Zap-70 was more than 10.4 µM; on EPHB4, more than 10.4 µM; at Src, more than 10.4 µM; at Kdr, less than 0.921 µM; against Ret-1 it was less than 0.921 µM; against Lyn, more than 10.4 µM. Also, at AKT, the IC50 was more than 10.4 µM.
For the molecule `COc1cc(Nc2ncnc(Nc3cccc(Br)c3)n2)cc(OC)c1OC` [Compound 75], the IC50 at Zap-70 was 8.1 to 10.4 µM; at EPHB4 it was less than 0.925 µM; against Src, 0.925 to 5.55 µM; at Kdr, 0.925 to 5.55 µM; against Ret-1, more than 10.4 µM; on Lyn, less than 0.925 µM. Besides, the IC50 at AKT was 8.1 to 10.4 µM.
Take `COc1cc(Nc2ncnc(Nc3ccc(O)cc3)n2)cc(OC)c1OC` [Compound 85]: the IC50 was more than 12.2 µM at Zap-70; 1.08 to 6.5 µM on EPHB4; less than 1.08 µM against Src; less than 1.08 µM at Kdr; 1.08 to 6.5 µM against Ret-1; less than 1.08 µM against Lyn. Besides, on AKT, the IC50 was more than 12.2 µM.
As to `COc1cc(Nc2ncnc(Nc3cnc4ccccc4c3)n2)cc(OC)c1OC` [Compound 99], the IC50 at Zap-70 is more than 11.1 µM; at EPHB4 it was less than 0.989 µM; on Src, 0.989 to 5.93 µM; on Kdr, less than 0.989 µM; against Ret-1 it was 0.989 to 5.93 µM; against Lyn it was 8.65 to 11.1 µM. Also, the IC50 at AKT is more than 11.1 µM.
Regarding `COc1cc(Nc2ncnc(Nc3ccc4cn[nH]c4c3)n2)cc(OC)c1OC` [Compound 70], the IC50 at Zap-70 is more than 11.4 µM; at EPHB4, 1.02 to 6.1 µM; at Src, less than 1.02 µM; at Kdr it was less than 1.02 µM; on Ret-1 it was 1.02 to 6.1 µM; against Lyn it was 1.02 to 6.1 µM. Also, at AKT, the IC50 is more than 11.4 µM.
For the molecule `COc1cc(Nc2ncnc(Nc3cc(C)c(O)cc3C)n2)cc(OC)c1OC` [Compound 94], the IC50 on Zap-70 was more than 11.3 µM; at EPHB4, 1.01 to 6.04 µM; against Src, 1.01 to 6.04 µM; at Kdr it was less than 1.01 µM; against Ret-1, more than 11.3 µM; on Lyn, less than 1.01 µM. Moreover, at AKT, the IC50 is more than 11.3 µM.
`COc1cc(Nc2ncnc(Nc3ccccc3C)n2)cc(OC)c1OC` [Compound 67]: the IC50 is more than 12.2 µM on Zap-70; 6.53 to 9.53 µM at EPHB4; 1.09 to 6.53 µM on Src; 1.09 to 6.53 µM at Kdr; more than 12.2 µM against Ret-1; less than 1.09 µM against Lyn. The IC50 at AKT is more than 12.2 µM.
Regarding `COc1cc(Nc2ncnc(-n3c(Nc4ccc5[nH]ccc5c4)nc4ccccc43)n2)cc(OC)c1OC` [Compound 376], the IC50 was more than 8.85 µM at Zap-70; 6.88 to 8.85 µM on EPHB4; more than 8.85 µM against Src; less than 0.787 µM on Kdr; 4.72 to 6.88 µM at ErbB2; less than 0.787 µM at Lyn. The IC50 on AKT was more than 8.85 µM.
As to `COc1cc(Nc2ncnc(Nc3ccc(Br)cc3)n2)cc(OC)c1OC` [Compound 82], the IC50 is more than 10.4 µM on Zap-70; 0.925 to 5.55 µM on EPHB4; less than 0.925 µM at Kdr; 0.925 to 5.55 µM against Ret-1; more than 10.4 µM at AKT.
Consider `COc1cc(Nc2ncnc(-n3c(NCc4ccccc4)nc4ccccc43)n2)cc(OC)c1OC` [Compound 371], for which the IC50 at Zap-70 was more than 9.31 µM; on EPHB4 it was less than 0.827 µM; at Src it was 0.827 to 4.96 µM; at Kdr, less than 0.827 µM; at ErbB2, more than 9.31 µM; on Lyn it was less than 0.827 µM. For the same molecule, the IC50 on AKT was more than 9.31 µM.
As to `COc1cc(Nc2ncnc(-n3c(Nc4cccc(C(=O)O)c4)nc4ccccc43)n2)cc(OC)c1OC` [Compound 390], the IC50 on Zap-70 was more than 8.76 µM; at EPHB4, more than 8.76 µM; on Src, 4.67 to 6.82 µM; on Kdr, 0.779 to 4.67 µM; on Lyn, 0.779 to 4.67 µM; on AKT, 0.779 to 4.67 µM.
On to `COc1cc(Nc2ncnc(Nc3cc(-c4ccco4)n[nH]3)n2)cc(OC)c1` [Compound 365], for which the IC50 on Zap-70 was 1.05 to 6.33 µM; on EPHB4, 1.05 to 6.33 µM; at Src it was 1.05 to 6.33 µM; on Kdr, less than 1.05 µM; against Lyn, less than 1.05 µM; on AKT, 6.33 to 9.23 µM.
Take `COc1cc(Nc2ncnc(Nc3cc(OC)c(OC)c(OC)c3)n2)cc(OC)c1OC` [Compound 76]: the IC50 is more than 10.1 µM on Zap-70; 0.902 to 5.41 µM at EPHB4; less than 0.902 µM against Src; 0.902 to 5.41 µM on Kdr; 0.902 to 5.41 µM against Lyn; more than 10.1 µM on AKT.
